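A five-concentration, 48-hour dose response in 96-well plates underlies each endpoint, interpolated linearly between surrounding concentrations. GI50: concentration for 50% inhibition of growth.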 Calls of active or inactive are those of the source. Rule as the data show it: active = GI50 up to about 1.1 µM and inactive = higher.
What was measured:
Assay in all cases: growth of human tumour cells (NCI), 48 h
[1] = tested on: 786-0
[2] = tested on: A498
[3] = tested on: A549
[4] = tested on: ACHN
[5] = tested on: CAKI-1
[6] = tested on: CCRF-CEM
[7] = tested on: COLO 205
[8] = tested on: DLD-1
[9] = tested on: DMS-114
[10] = tested on: DMS-273
[11] = tested on: EKVX
[12] = tested on: HCC 2998
[13] = tested on: HCT-116
[14] = tested on: HCT-15
[15] = tested on: HL-60
[16] = tested on: HOP-18
[17] = tested on: HOP-62
[18] = tested on: HT-29
[19] = tested on: IGROV-1
[20] = tested on: K562
[21] = tested on: KM-20L2
[22] = tested on: KM12
[23] = tested on: LOX IMVI
[24] = tested on: LXFL 529
[25] = tested on: M14
[26] = tested on: M19-MEL
[27] = tested on: MOLT-4
[28] = tested on: Malme-3M
[29] = tested on: NCI-H226
[30] = tested on: NCI-H23
[31] = tested on: NCI-H460
[32] = tested on: NCI-H522
[33] = tested on: OVCAR-3
[34] = tested on: OVCAR-4
[35] = tested on: OVCAR-5
[36] = tested on: OVCAR-8
[37] = tested on: RXF 393
[38] = tested on: RXF 631
[39] = tested on: SF-268
[40] = tested on: SF-295
[41] = tested on: SF-539
[42] = tested on: SK-MEL-28
[43] = tested on: SK-MEL-2
[44] = tested on: SK-MEL-5
[45] = tested on: SK-OV-3
[46] = tested on: SN12C
[47] = tested on: SNB-19
[48] = tested on: SNB-75
[49] = tested on: SNB-78
[50] = tested on: SR
[51] = tested on: SW-620
[52] = tested on: TK-10
[53] = tested on: U-251
[54] = tested on: UACC-257
[55] = tested on: UACC-62
[56] = tested on: UO-31
[57] = tested on: XF498
[58] = tested on: BT-549
[59] = tested on: DU-145
[60] = tested on: HOP-92
[61] = tested on: Hs-578T
[62] = tested on: MCF7
[63] = tested on: MDA-MB-231
[64] = tested on: MDA-MB-435
[65] = tested on: MDA-N
[66] = tested on: NCI/ADR-RES
[67] = tested on: PC-3
[68] = tested on: RPMI-8226

Measured: GI50

CCSC1(SCC)CCN(/C=N/C(C)(C)C)C1
> 100 µM: [14]
inactive: [1] > 100 µM | [2] > 100 µM | [3] > 100 µM | [4] > 100 µM | [5] > 100 µM | [6] 76.4 µM | [7] 54.7 µM | [8] 62.4 µM | [9] 44.7 µM | [10] > 100 µM | [11] > 100 µM | [12] > 100 µM | [13] 78 µM | [15] 29.7 µM | [16] > 100 µM | [17] > 100 µM | [18] > 100 µM | [19] > 100 µM | [20] > 100 µM | [21] > 100 µM | [22] > 100 µM | [23] 52.6 µM | [24] > 100 µM | [25] > 100 µM | [26] > 100 µM | [27] > 100 µM | [28] > 100 µM | [29] > 100 µM | [30] > 100 µM | [31] > 100 µM | [32] > 100 µM | [33] > 100 µM | [34] > 100 µM | [35] > 100 µM | [36] > 100 µM | [37] 67.8 µM | [38] > 100 µM | [39] > 100 µM | [40] > 100 µM | [41] > 100 µM | [42] > 100 µM | [43] > 100 µM | [44] > 100 µM | [45] > 100 µM | [46] > 100 µM | [47] > 100 µM | [48] > 100 µM | [49] > 100 µM | [50] > 100 µM | [51] 19.5 µM | [52] > 100 µM | [53] > 100 µM | [54] > 100 µM | [55] > 100 µM | [56] > 100 µM | [57] > 100 µM

Brc1ccccc2cc(-c3ccccc3)nc1-2
inactive: [1] 1.92 µM | [2] 14 µM | [3] 14.7 µM | [4] 3.37 µM | [58] 19.3 µM | [5] 5.05 µM | [6] 2.47 µM | [7] 2.14 µM | [8] 1.94 µM | [9] 2.16 µM | [10] 4.35 µM | [59] 11.9 µM | [11] 11.5 µM | [12] 1.93 µM | [13] 1.85 µM | [15] 1.27 µM | [16] 3.78 µM | [17] 9.93 µM | [60] 3.32 µM | [18] 4.5 µM | [61] 6.87 µM | [19] 9.12 µM | [20] 2.7 µM | [21] 1.71 µM | [22] 5.97 µM | [23] 2.23 µM | [24] 1.73 µM | [25] 3 µM | [62] 8.79 µM | [63] 2.6 µM | [64] 9.95 µM | [65] 14.7 µM | [27] 1.53 µM | [28] 3.01 µM | [29] 5.05 µM | [30] 3.26 µM | [31] 11.9 µM | [32] 2.86 µM | [66] 3.58 µM | [33] 2.16 µM | [34] 2.9 µM | [35] 7.43 µM | [36] 2.27 µM | [67] 13.5 µM | [68] 2.44 µM | [37] 2.09 µM | [38] 11.9 µM | [39] 4.85 µM | [40] 15.6 µM | [41] 4.8 µM | [42] 3.94 µM | [43] 4.61 µM | [44] 6.55 µM | [45] 8.69 µM | [46] 1.87 µM | [47] 13.6 µM | [48] 11.6 µM | [49] 2.85 µM | [51] 2.07 µM | [52] 7.57 µM | [53] 7.87 µM | [54] 5.06 µM | [55] 2.53 µM | [56] 5.37 µM | [57] 1.98 µM
2.24 µM: [14]

COc1ccc(C)cc1-c1cc(Sc2ccccc2)c(-c2cc(C)ccc2OC)o1
> 31.6 µM: [14]
inactive: [1] > 31.6 µM | [2] > 31.6 µM | [3] > 31.6 µM | [4] > 31.6 µM | [5] > 31.6 µM | [6] > 31.6 µM | [7] > 31.6 µM | [8] > 31.6 µM | [9] > 31.6 µM | [10] > 31.6 µM | [11] > 31.6 µM | [12] > 31.6 µM | [13] > 31.6 µM | [15] > 31.6 µM | [16] > 31.6 µM | [17] > 31.6 µM | [60] > 31.6 µM | [18] > 31.6 µM | [19] > 31.6 µM | [20] > 31.6 µM | [21] > 31.6 µM | [22] > 31.6 µM | [23] > 100 µM | [24] > 31.6 µM | [25] > 31.6 µM | [26] > 31.6 µM | [27] > 31.6 µM | [28] > 31.6 µM | [29] > 31.6 µM | [30] > 31.6 µM | [31] > 31.6 µM | [32] > 31.6 µM | [33] > 31.6 µM | [34] > 31.6 µM | [35] > 100 µM | [36] > 31.6 µM | [68] > 31.6 µM | [38] > 31.6 µM | [39] > 31.6 µM | [40] > 100 µM | [41] > 31.6 µM | [42] > 31.6 µM | [43] > 10 µM | [44] > 31.6 µM | [45] > 31.6 µM | [46] > 31.6 µM | [47] > 31.6 µM | [48] > 31.6 µM | [49] > 31.6 µM | [51] > 29.6 µM | [52] > 31.6 µM | [53] > 31.6 µM | [54] > 31.6 µM | [55] > 31.6 µM | [56] > 31.6 µM | [57] > 100 µM

COC(=O)c1cc(Br)c(Br)n1C
inactive: [1] > 100 µM | [2] > 100 µM | [3] > 100 µM | [4] > 100 µM | [5] > 100 µM | [6] > 100 µM | [7] > 100 µM | [8] 81.8 µM | [9] > 100 µM | [10] > 100 µM | [11] 42.7 µM | [12] > 100 µM | [13] > 100 µM | [15] > 100 µM | [16] > 100 µM | [17] > 100 µM | [60] > 100 µM | [18] > 100 µM | [19] > 100 µM | [20] > 100 µM | [21] > 100 µM | [22] > 100 µM | [23] > 100 µM | [24] > 100 µM | [25] > 100 µM | [26] > 100 µM | [27] 70.3 µM | [28] > 100 µM | [29] > 100 µM | [30] > 100 µM | [32] 39.4 µM | [33] > 100 µM | [34] > 100 µM | [35] > 100 µM | [36] > 100 µM | [37] > 100 µM | [38] > 100 µM | [39] > 100 µM | [40] > 100 µM | [41] > 100 µM | [42] > 100 µM | [44] > 100 µM | [45] > 100 µM | [46] > 100 µM | [47] > 100 µM | [48] > 100 µM | [49] > 100 µM | [50] 33.9 µM | [51] > 100 µM | [52] > 100 µM | [53] > 100 µM | [54] > 100 µM | [55] > 100 µM | [56] > 100 µM | [57] > 100 µM

— ChEMBL document CHEMBL1201862, “PubChem BioAssay data set” (2004)
